# Measurements from PubChem BioAssay (NCI).
# Several values for one entry are separate records, joined by “and”; a condition that tells them apart may be missing. Identical values can stand only once.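 1) Cells in 96-well plates. 2) Compound, 48 h, 5 concentrations. 3) Linear interpolation between surrounding doses. 4) Unreached endpoint = highest concentration. At the GI50, growth is halved. TGI is the concentration that stops growth completely.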
# What was measured:
# Test in all cases: NCI-60 cell line screen, 48 h
# OVCAR-5 ovarian = tested on: OVCAR-5 ovarian
# SNB-75 CNS = tested on: SNB-75 CNS
# SR leukemia = tested on: SR leukemia
# IGROV1 ovarian = tested on: IGROV1 ovarian
# A498 renal = tested on: A498 renal
# OVCAR-8 ovarian = tested on: OVCAR-8 ovarian
# HT29 colon = tested on: HT29 colon
# NCI-H522 lung = tested on: NCI-H522 lung
# NCI/ADR-RES ovarian = tested on: NCI/ADR-RES ovarian
# U251 CNS = tested on: U251 CNS
Compound,TGI (OVCAR-5 ovarian),TGI (SNB-75 CNS),TGI (SR leukemia),TGI (IGROV1 ovarian),TGI (A498 renal),TGI (OVCAR-8 ovarian),TGI (HT29 colon),TGI (NCI-H522 lung),TGI (NCI/ADR-RES ovarian),TGI (U251 CNS),GI50 (SR leukemia),GI50 (OVCAR-8 ovarian)
O=C1c2ccccc2C(=O)c2c(O)c(NCCNCCO)cc(O)c21,21.8 µM,17.9 µM,9.04 µM,6.62 µM,21 µM,12.6 µM,11.5 µM,–,–,–,–,–
Cn1nc(C(=O)N2CC(CCl)c3c2cc([N+](=O)[O-])c2ccccc32)cc1NC(=O)Nc1cc(C(=O)N2CC(CCl)c3c2cc([N+](=O)[O-])c2ccccc32)nn1C (stereo not drawn),> 100 µM,> 100 µM,–,–,> 100 µM,–,–,> 100 µM,> 100 µM,> 100 µM,–,–
CC1=C(C(=O)NC(C)(C)C)CC(C(=O)NC(C)(C)C)C(C)N1 (stereo not drawn),> 100 µM,> 100 µM,–,> 100 µM,> 100 µM,> 100 µM,> 100 µM,> 100 µM,> 100 µM,> 100 µM,–,–
Cc1[nH]c2ccccc2c1C1=CC(=O)N(c2ccccc2)C1=O,> 100 µM,–,–,> 100 µM,60.3 µM,50 µM,21.8 µM,–,> 100 µM,47.7 µM,–,–
CN(C)Cc1[nH]c2ccccc2c1C(=O)c1ccccc1,> 100 µM,74.9 µM,> 100 µM,> 100 µM,–,> 100 µM,> 100 µM,> 100 µM,–,> 100 µM,–,–
O=C1/C(=C/c2ccc(Cl)cc2)Sc2scc(-c3cccc([N+](=O)[O-])c3)[n+]21,51.3 µM,5.49 µM,2.42 µM,7.48 µM,–,–,> 45 µM,2.01 µM,–,23.6 µM,–,–
CSc1nc(C)c(CCCl)c(Cl)n1,–,> 100 µM,–,> 100 µM,> 100 µM,> 100 µM,> 100 µM,49.9 µM,> 100 µM,> 100 µM,–,–
COc1ccc(C2C(Cl)C(=O)N2NC(=O)c2ccccc2O)cc1OC (stereo not drawn),–,–,–,> 100 µM,> 100 µM,> 100 µM,> 100 µM,> 100 µM,–,> 100 µM,–,–
CC(=O)C1=NN(c2ccccc2)C2(S1)SC(c1ccccc1)(c1ccccc1)c1ccccc12 (stereo not drawn),–,71.1 µM,> 100 µM,> 100 µM,> 100 µM,> 100 µM,> 100 µM,80.1 µM,–,> 100 µM,–,–
O=C(O)CN=c1c2ccccc2n(O)c2ccccc12,> 100 µM,> 100 µM,–,> 100 µM,> 100 µM,> 100 µM,> 100 µM,> 100 µM,–,> 100 µM,–,–
CC(=O)C1C(=O)C(=O)N(c2ccc(Br)cc2)C1=O (stereo not drawn),> 100 µM,> 100 µM,–,> 100 µM,–,> 100 µM,> 100 µM,> 100 µM,> 100 µM,> 100 µM,–,–
Nc1nc(NCCOCP(=O)(O)O)c(N)c(=O)[nH]1,> 100 µM,> 100 µM,> 100 µM,> 100 µM,> 100 µM,> 100 µM,> 100 µM,–,> 100 µM,> 100 µM,–,–
CC(=O)O/N=C/c1cc2c(cc1Br)OCO2,> 349 µM,–,> 349 µM,> 349 µM,–,> 349 µM,> 349 µM,> 349 µM,–,> 34.9 µM,–,–
CCCCCCC(=O)OC[n+]1cccc(-c2c(COC(=O)NC(C)C)c(COC(=O)NC(C)C)c3n2CCC3)c1,> 100 µM,> 100 µM,–,> 86.6 µM,44.9 µM,> 100 µM,> 100 µM,43.6 µM,> 100 µM,> 100 µM,–,–
Cc1ccc(F)c2c(=O)cc(-c3ccccc3)[nH]c12,> 100 µM,> 100 µM,> 100 µM,> 100 µM,–,> 100 µM,> 100 µM,> 100 µM,–,> 100 µM,–,–
Cc1ccc(Nc2cn(COCc3ccccc3)c(=O)[nH]c2=O)cc1,> 100 µM,–,> 100 µM,> 100 µM,> 100 µM,–,> 100 µM,–,> 100 µM,> 100 µM,–,–
O=[N+]([O-])c1ccc2[nH]c(O)c(N=NC(=S)Nc3ccccc3)c2c1,24.7 µM,21.5 µM,> 100 µM,19.6 µM,13.2 µM,31.8 µM,19 µM,–,8.62 µM,16.6 µM,–,–
CC#Cc1c(C#CC)c(OC)c2c(c1OC)C(=O)c1ccccc1C2=O,> 100 µM,–,> 100 µM,> 100 µM,> 100 µM,> 100 µM,> 100 µM,42.5 µM,–,48 µM,–,–
CC(Nc1n[nH]c(=O)c2c1nnn2Cc1ccccc1)c1ccccc1 (stereo not drawn),> 100 µM,–,> 100 µM,–,–,> 100 µM,24.7 µM,–,> 100 µM,> 100 µM and 88.7 µM,> 100 µM and 48 µM,> 100 µM and 44.5 µM

Compound,TGI (OVCAR-5 ovarian),TGI (SNB-75 CNS),TGI (SR leukemia),TGI (IGROV1 ovarian),TGI (A498 renal),TGI (OVCAR-8 ovarian),TGI (HT29 colon),TGI (NCI-H522 lung),TGI (NCI/ADR-RES ovarian),TGI (U251 CNS),GI50 (SR leukemia),GI50 (OVCAR-8 ovarian)
C=CCC1C2CCC(O[Si](C(C)C)(C(C)C)C(C)C)(C(C(=O)OC)C2)C1O (stereo not drawn),> 100 µM,> 100 µM,> 100 µM,> 100 µM,> 100 µM,> 100 µM,> 100 µM,–,> 100 µM,> 100 µM,–,–
CC1(C)N=C(Oc2ccccc2)n2nccc2N1,> 100 µM,> 100 µM,> 100 µM,> 100 µM,> 100 µM,–,> 100 µM,> 100 µM,–,> 100 µM,–,–
Cc1cc(C)nc(NS(=O)(=O)c2ccc(NC(=O)c3cccc4c(N)c5ccccc5nc34)cc2)n1,> 100 µM,> 100 µM,–,> 100 µM,> 100 µM,> 100 µM,–,> 100 µM,–,> 100 µM,–,–
CCOC(=O)c1c(NC(=O)c2ccc(Br)cc2)sc2c1CCCC2,> 100 µM,–,> 100 µM,> 100 µM,> 100 µM,> 100 µM,> 100 µM,–,–,> 100 µM,–,–
CCCOP(=S)(N1CC1)N1CC1,> 100 µM,> 100 µM,> 100 µM,> 100 µM,> 100 µM,> 100 µM,> 100 µM,> 100 µM,–,> 100 µM,–,–
Cc1cc(Cl)ccc1NC(=O)C(=O)Cc1occc(=O)c1O,> 100 µM,> 100 µM,> 100 µM,> 100 µM,> 100 µM,> 100 µM,> 100 µM,> 100 µM,–,> 100 µM,–,–
C(=N/NC1=NCCN1)/c1c2ccccc2c(/C=N\NC2=NCCN2)c2ccccc12,1.38 µM and 0.95 µM and 0.793 µM,0.054 µM and 0.426 µM and 0.44 µM,0.759 µM and 4.29 µM,0.661 µM and 3.09 µM and 4.75 µM,0.273 µM and 1.8 µM and 2.3 µM,1.32 µM and 2.98 µM and 3.42 µM,1.36 µM and 1.41 µM and 2.04 µM,0.214 µM and 0.262 µM and 0.387 µM,–,0.722 µM and 0.309 µM and 1.16 µM,0.116 µM,–
CC[C@H](C)[C@H]1NC(=O)[C@@H](NC(=O)[C@@H](CC(C)C)N(C)C(=O)C2CCCN2C(=O)[C@H](C)O)[C@@H](C)OC(=O)[C@H](Cc2ccccc2)N(C)C(=O)[C@@H]2CCCN2C(=O)[C@H](CC(C)C)NC(=O)[C@@H](C)C(=O)[C@H](C(C)C)OC(=O)C[C@@H]1O (stereo partly drawn),0.075 µM,< 0.00625 µM,–,–,0.0508 µM,0.0461 µM,0.0205 µM,< 0.00625 µM,1.6 µM,–,–,–
Cc1cc(-c2ccc(C(=O)C(c3ccccc3)(c3ccccc3)c3ccccc3)[nH]2)on1,> 100 µM,> 100 µM,29.7 µM,73.9 µM,> 100 µM,42 µM,25.6 µM,–,36.8 µM,37.1 µM,–,–
CSc1nc(-c2ccc(Cl)cc2)c(C#N)c(=O)[nH]1,> 100 µM,> 100 µM,–,> 100 µM,> 100 µM,> 100 µM,> 100 µM,> 100 µM,> 100 µM,> 100 µM,–,–
Cc1nc2nn(C)cc2c(=O)n1/N=C/c1ccccc1,> 100 µM,> 100 µM,> 100 µM,> 100 µM,> 100 µM,> 100 µM,> 100 µM,> 100 µM,–,> 100 µM,–,–
COc1ccc(/C=C(\Cl)c2ccc(OC)cc2)cc1,> 100 µM,> 100 µM,> 100 µM,–,> 100 µM,> 100 µM,–,> 100 µM,–,> 100 µM,–,–
CN(CCO)/N=N/c1nc[nH]c1C(N)=O,> 100 µM,> 100 µM,> 100 µM,> 100 µM,> 100 µM,> 100 µM,> 100 µM,> 100 µM,–,> 100 µM,–,–
c1cc(C[S+]2CCCC2)oc1C[S+]1CCCC1,–,> 100 µM,–,> 100 µM,> 100 µM,> 100 µM,> 100 µM,> 100 µM,> 100 µM,> 100 µM,–,–
COC(=O)CNCC1OC2OC(C)(C)OC2C1N=[N+]=[N-] (stereo not drawn),> 100 µM,> 100 µM,> 100 µM,> 100 µM,> 100 µM,> 100 µM,> 100 µM,–,> 100 µM,> 100 µM,–,–
COc1nc(OC)nc(Sc2ccc(Sc3ccc(Sc4nc(OC)nc(OC)n4)cc3)cc2)n1,> 100 µM,> 100 µM,> 100 µM,> 100 µM,> 100 µM,> 100 µM,> 100 µM,> 100 µM,–,> 100 µM,–,–
O=C1Cc2ccccc2CCc2ccsc21,> 100 µM,> 100 µM,> 100 µM,> 100 µM,> 100 µM,> 100 µM,> 100 µM,> 100 µM,–,> 100 µM,–,–
Cc1ccccc1NC(=O)CSc1nnc(Cc2ccccc2)o1,> 100 µM,> 100 µM,–,> 100 µM,–,> 100 µM,> 100 µM,> 100 µM,–,> 100 µM,–,–
